Assay results: PubChem BioAssay (NCI)
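1) Cells in 96-well plates. 2) Compound, 48 h, 5 concentrations. 3) Linear interpolation between surrounding doses. 4) Unreached endpoint = highest concentration. TGI is the concentration that stops growth completely.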

Experiments:
Assay in all cases: inhibition of tumour cell growth, NCI panel, 48 h
A549 NSCLC = test system: A549 NSCLC
ACHN renal = test system: ACHN renal
CCRF-CEM leukemia = test system: CCRF-CEM leukemia
DLD-1 colon = test system: DLD-1 colon
DMS 114 small cell lung = test system: DMS 114 small cell lung
DMS 273 small cell lung = test system: DMS 273 small cell lung
HCT-116 colon = test system: HCT-116 colon
HCT-15 colon = test system: HCT-15 colon
HL-60(TB) leukemia = test system: HL-60(TB) leukemia
HT29 colon = test system: HT29 colon
IGROV1 ovarian = test system: IGROV1 ovarian
K-562 leukemia = test system: K-562 leukemia
KM12 colon = test system: KM12 colon
LOX IMVI melanoma = test system: LOX IMVI melanoma
LXFL 529 NSCLC = test system: LXFL 529 NSCLC
M19-MEL melanoma = test system: M19-MEL melanoma
MALME-3M melanoma = test system: MALME-3M melanoma
MOLT-4 leukemia = test system: MOLT-4 leukemia
NCI-H226 lung = test system: NCI-H226 lung
NCI-H23 lung = test system: NCI-H23 lung
NCI-H460 lung = test system: NCI-H460 lung
NCI-H522 lung = test system: NCI-H522 lung
OVCAR-3 ovarian = test system: OVCAR-3 ovarian
OVCAR-4 ovarian = test system: OVCAR-4 ovarian
OVCAR-8 ovarian = test system: OVCAR-8 ovarian
RXF 393 renal = test system: RXF 393 renal
SF-268 CNS = test system: SF-268 CNS
SF-295 CNS = test system: SF-295 CNS
SF-539 CNS = test system: SF-539 CNS
SK-MEL-2 melanoma = test system: SK-MEL-2 melanoma
SK-MEL-28 melanoma = test system: SK-MEL-28 melanoma
SK-MEL-5 melanoma = test system: SK-MEL-5 melanoma
SK-OV-3 ovarian = test system: SK-OV-3 ovarian
SN12C renal = test system: SN12C renal
SNB-19 CNS = test system: SNB-19 CNS
SNB-75 CNS = test system: SNB-75 CNS
SNB-78 CNS = test system: SNB-78 CNS
SW-620 colon = test system: SW-620 colon
TK-10 renal = test system: TK-10 renal
U251 CNS = test system: U251 CNS
UACC-257 melanoma = test system: UACC-257 melanoma
UACC-62 melanoma = test system: UACC-62 melanoma
UO-31 renal = test system: UO-31 renal
XF 498 CNS = test system: XF 498 CNS
786-0 renal = test system: 786-0 renal
A498 renal = test system: A498 renal
CAKI-1 renal = test system: CAKI-1 renal
COLO 205 colon = test system: COLO 205 colon
EKVX NSCLC = test system: EKVX NSCLC
HCC-2998 colon = test system: HCC-2998 colon
HOP-18 NSCLC = test system: HOP-18 NSCLC
HOP-62 NSCLC = test system: HOP-62 NSCLC
HOP-92 NSCLC = test system: HOP-92 NSCLC
KM20L2 colon = test system: KM20L2 colon
M14 melanoma = test system: M14 melanoma
OVCAR-5 ovarian = test system: OVCAR-5 ovarian
RPMI-8226 leukemia = test system: RPMI-8226 leukemia
SR leukemia = test system: SR leukemia

Measured: TGI

CN(C)c1nc(N(C)C)nc(N(C)CN(C)c2ccc(Cl)cc2)n1
> 100 µM: A549 NSCLC | ACHN renal | CCRF-CEM leukemia | DLD-1 colon | DMS 114 small cell lung | DMS 273 small cell lung | HCT-116 colon | HCT-15 colon | HL-60(TB) leukemia | HT29 colon | IGROV1 ovarian | K-562 leukemia | KM12 colon | LOX IMVI melanoma | LXFL 529 NSCLC | M19-MEL melanoma | MALME-3M melanoma | MOLT-4 leukemia | NCI-H226 lung | NCI-H23 lung | NCI-H460 lung | NCI-H522 lung | OVCAR-3 ovarian | OVCAR-4 ovarian | OVCAR-8 ovarian | RXF 393 renal | SF-268 CNS | SF-295 CNS | SF-539 CNS | SK-MEL-2 melanoma | SK-MEL-28 melanoma | SK-MEL-5 melanoma | SK-OV-3 ovarian | SN12C renal | SNB-19 CNS | SNB-75 CNS | SNB-78 CNS | SW-620 colon | TK-10 renal | U251 CNS | UACC-257 melanoma | UACC-62 melanoma | UO-31 renal | XF 498 CNS

CC1(Cl)CC2OC3(Br)C=CC(C)(O)C2(CC1Br)C3(C)C (stereo not given)
> 100 µM: 786-0 renal | A498 renal | A549 NSCLC | ACHN renal | CAKI-1 renal | CCRF-CEM leukemia | COLO 205 colon | DLD-1 colon | DMS 114 small cell lung | DMS 273 small cell lung | EKVX NSCLC | HCC-2998 colon | HCT-116 colon | HCT-15 colon | HL-60(TB) leukemia | HOP-18 NSCLC | HOP-62 NSCLC | HOP-92 NSCLC | HT29 colon | IGROV1 ovarian | K-562 leukemia | KM12 colon | KM20L2 colon | LOX IMVI melanoma | LXFL 529 NSCLC | M14 melanoma | M19-MEL melanoma | MALME-3M melanoma | MOLT-4 leukemia | NCI-H226 lung | NCI-H23 lung | NCI-H460 lung | OVCAR-3 ovarian | OVCAR-4 ovarian | OVCAR-5 ovarian | OVCAR-8 ovarian | RPMI-8226 leukemia | RXF 393 renal | SF-268 CNS | SF-295 CNS | SF-539 CNS | SK-MEL-2 melanoma | SK-MEL-28 melanoma | SK-MEL-5 melanoma | SK-OV-3 ovarian | SN12C renal | SNB-19 CNS | SNB-75 CNS | SNB-78 CNS | SR leukemia | SW-620 colon | TK-10 renal | U251 CNS | UACC-257 melanoma | UACC-62 melanoma | UO-31 renal
